Values quoted from earlier work as cited in patent US4033823A, “Process to produce lysocellin” (Hoffmann-La Roche Inc., priority 1976, dated 1977).

Key:
[1] = test system: Staphylococcus aureus FDA 209P
[2] = test system: Antibiotic resistant S. aureus; settings: S. aureus resistant to streptomycin, erythromycin, chloramphenicol and penicillin
[3] = test system: Sarcina lutea
[4] = test system: Bacillus subtilis
[5] = test system: Mycobacterium smegmatis
[6] = test system: Escherichia coli
[7] = test system: Antibiotic resistant E. coli; settings: E. coli resistant to streptomycin, chloramphenicol, kanamycin, tetracyclin and sulfonamide
[8] = test system: Shigella dysenteriae
[9] = test system: Salmonella typhimurium
[10] = test system: Pseudomonas aeruginosa
[11] = test system: Botrytis cinerea
[12] = test system: Helminthosporium oryzae
[13] = test system: Fusarium oxysporum
[14] = test system: Alternaria kikuchiana
[15] = test system: gram-positive bacteria
[16] = test system: antibiotic resistant Staphylococcus aureus
[17] = test system: fungi; settings: some fungi
[18] = test system: gram-negative bacteria
[19] = test system: Bacillus subtilis; settings: Bacillus subtilis grown on liquid medium
[20] = test system: staphylococcus aureus; settings: intraperitoneal administration
[21] = mice, intraperitoneally
[22] = 66% dimethylformamide

Lysocellin
Minimum inhibitory Concentration [1]: 10 µg/mL
Minimum inhibitory Concentration [2]: 4 µg/mL
Minimum inhibitory Concentration [3]: 10 µg/mL
Minimum inhibitory Concentration [4]: 10 µg/mL
Minimum inhibitory Concentration [5]: 20 µg/mL
Minimum inhibitory Concentration [6]: > 100 µg/mL
Minimum inhibitory Concentration [7]: > 100 µg/mL
Minimum inhibitory Concentration [8]: > 100 µg/mL
Minimum inhibitory Concentration [9]: > 100 µg/mL
Minimum inhibitory Concentration [10]: > 100 µg/mL
Minimum inhibitory Concentration [11]: 50 µg/mL
Minimum inhibitory Concentration [12]: 50 µg/mL
Minimum inhibitory Concentration [13]: 100 µg/mL
Minimum inhibitory Concentration [14]: 100 µg/mL
Antimicrobial activity [15]: active
Antimicrobial activity [16]: active
Antimicrobial activity [17]: active against some fungi
Antimicrobial activity [18]: not active
bacterial lysis [19]: caused bacterial lysis
activity against staphylococcus aureus infection in mice [20]: inactive
LD50 [21]: about 70 mg/kg
pKa' [22]: 6.6
